Results taken from patent US7204974B2, “Stabilization of oxidation-sensitive or UV-sensitive active ingredients” (Beiersdorf AG, priority 2001, dated 2007).

Assay: Polarity of lipids
Type: physicochemical
[1] = further lipids, polarity of ≧30 mN/m
[2] = lipids with a polarity of at most 30 mN/m

Polarity mN/m [1] | Polarity mN/m [2] | Compound
– | 29.6 mN/m | CCCCCCCC(=O)OCCCCCCCC(C)C [Dermol 108, Isodecyl Octanoate]
– | 29.7 mN/m | CCCCCCCCCC(=O)OCCCC(C)C [Dermol IHD, Isohexyl Decanoate]
– | 29.2 mN/m | CCCCCCOCCCCCC [Dihexyl ether, Dihexyl Ether]
40.5 mN/m | – | CCCCCCCC/C=C\CCCCCCCC(=O)OCCOCCOCC [Ethoxydiglycol Oleate]
41.9 mN/m | – | CCCCCCCCCCCCCCCCCC(C)C [Isoeicosane]
43.8 mN/m | – | CCCCCCCCCCCCCC(C)C [Isohexadecane]
– | 21.9 mN/m | CCCCCCCCCCCCCCCCCC(=O)OC(C)C [Isopropyl stearate, Isopropyl Stearate]
– | 22.1 mN/m | CCCCCCCCCCCCCC(=O)OCC(CCCCCCCC)CCCCCCCCCC (stereo not drawn) [M.O.D., Octyldodecyl Myristate]
31.6 mN/m | – | CCCCCCCCOC(=O)CCCCCCCCCCCCCCC(C)C [Octyl Isostearate]
– | 17.8 mN/m | CCCCCCCCCCCCCCCCCCOC(=O)CCCCCC [Tegosoft SH, Stearyl Heptanoate]
31.1 mN/m | – | CC(CCOC(=O)CC(C)CC(C)(C)C)CC(C)(C)C (stereo not drawn) [Trimethylhexyl Isononanoate]
– | 20.2 mN/m | CCCCCCCC(=O)OCC(COC(=O)CCCCCCC)OC(=O)CCCCCCC [Trivent OCG, Tricaprylin]
– | 28.5 mN/m | Cyclopolydimethylsiloxane [Dow Corning Fluid 244]
36.2 mN/m | – | Isocetyl Palmitate
– | 24.5 mN/m | Isotridecyl 3,5,5-trimethylhexanonanoate [Dermol 139]
– | 22.7 mN/m | Phenyl Trimethicone [Silicone oil VP 1120]
– | 2.4 mN/m | Triisostearin [Prisorine 2041 GTIS]

More lines, now with the values behind:

Compound | Polarity mN/m [1] | Polarity mN/m [2]
CCCCC(CC)COC(=O)CCCCCC(C)C (stereo not drawn) [2-Ethylhexyl Isononanoate] | 31.0 mN/m | –
CCCCOC(=O)CCCCC(=O)OCCCC [Cetiol B, Dibutyl Adipate] | – | 14.3 mN/m
CC(C)CCCCCCCOC(=O)C(C)(C)C [DUB VCI 10, Isodecyl Neopentanoate] | – | 29.9 mN/m
CCCCC(CC)C(=O)OCCC(C)CC(C)(C)C (stereo not drawn) [Dermol 98, 2-Ethylhexanoic acid 3,5,5-trimethyl ester] | – | 26.2 mN/m
CC(C)CCCCCCCOC(=O)CC(C)CC(C)(C)C (stereo not drawn) [Dermol 109, Isodecyl 3,5,5-Trimethyl Hexanoate] | – | 29.1 mN/m
CCCCCCCCCCC(CO)CCCCCCCC (stereo not drawn) [Eutanol G, Octyldodecanol] | – | 24.8 mN/m
CCCCCCC(CCCC)C(=O)O (stereo not drawn) [Isocarb 12, Butyl Octanoic Acid] | – | 22.1 mN/m
CCCCCCC(CO)CCCC (stereo not drawn) [Isofol 12, Butyl Octanol] | – | 17.4 mN/m
CCCCCCCCC(CO)CCCCCC (stereo not drawn) [Isofol 16, Hexyl Decanol] | – | 24.3 mN/m
Cetearyl Isononanoate [Cetiol SN] | – | 28.6 mN/m
Cyclomethicone [DC Fluid 345] | – | 28.5 mN/m
Dioctylcyclohexane | 39.0 mN/m | –
PEG 2 Diethylene Hexanoate [Dermol 488] | – | 10.1 mN/m
